Measured values: paper PMC7580763, “Novel insights on saccharin- and acesulfame-based carbonic anhydrase inhibitors: design, synthesis, modelling investigations and biological activity evaluation” (Journal of Enzyme Inhibition and Medicinal Chemistry, 2020)
“And” between values parts separate entries of the source, which are not always exact repeats. Identical values can stand only once. Like-named read-outs stand apart in the source and are kept apart here.

Columns and labels:
Type in all cases: biochemical
hCA I = hCA I (Homo sapiens, UniProt P00915); experiment: CA inhibition, stopped-flow CO2 hydrase assay, hCA I
Procedure: (§1) An Applied Photophysics stopped-flow instrument has been used for assaying the CA-catalyzed CO2 hydration activity. […] The initial rates of the CA-catalysed CO2 hydration reaction were followed for a period of 10−100 s. The CO2 concentrations ranged from 1.7 to 17 mM for the determination of the kinetic parameters and inhibition constants. […] The uncatalyzed rates were determined in the same manner and subtracted from the total observed ones. Stock solutions of each inhibitor (0.1 mM) were prepared in distilled − deionized water and dilutions up to 0.01 nM were done thereafter with distilled − deionized water. Inhibitor and enzyme solutions were preincubated together for 15 min at room temperature prior to assay to allow for the formation of the E−I complex. The inhibition constants were obtained by nonlinear least-squares methods using the Cheng-Prusoff equation and represent the mean from at least three different determinations. […] Human CA isoforms were recombinant enzymes obtained in-house as reported earlier.

hCA II = hCA II (Homo sapiens, UniProt P00918); experiment: CA inhibition, stopped-flow CO2 hydrase assay, hCA II
Procedure: as §1

hCA IX = hCA IX (Homo sapiens, UniProt Q16790); experiment: CA inhibition, stopped-flow CO2 hydrase assay, hCA IX
Procedure: as §1

hCA XII = hCA XII (Homo sapiens, UniProt O43570); experiment: CA inhibition, stopped-flow CO2 hydrase assay, hCA XII
Procedure: as §1

[1] = Table 1, saccharin-based derivatives, recombinant enzyme, 15 min preincubation, pH 7.5
[2] = Table 2, acesulfame-based derivatives, mean from 3 different assays, errors ± 5–10%

Chain of hCA I (P00915 whole entry): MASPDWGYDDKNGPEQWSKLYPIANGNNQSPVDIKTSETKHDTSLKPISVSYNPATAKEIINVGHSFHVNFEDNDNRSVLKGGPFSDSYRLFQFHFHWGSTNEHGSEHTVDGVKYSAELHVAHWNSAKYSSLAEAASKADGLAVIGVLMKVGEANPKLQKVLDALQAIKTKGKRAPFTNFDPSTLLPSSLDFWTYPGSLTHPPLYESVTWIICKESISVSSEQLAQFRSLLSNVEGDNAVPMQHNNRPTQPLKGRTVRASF
Chain of hCA XII (O43570 25-354): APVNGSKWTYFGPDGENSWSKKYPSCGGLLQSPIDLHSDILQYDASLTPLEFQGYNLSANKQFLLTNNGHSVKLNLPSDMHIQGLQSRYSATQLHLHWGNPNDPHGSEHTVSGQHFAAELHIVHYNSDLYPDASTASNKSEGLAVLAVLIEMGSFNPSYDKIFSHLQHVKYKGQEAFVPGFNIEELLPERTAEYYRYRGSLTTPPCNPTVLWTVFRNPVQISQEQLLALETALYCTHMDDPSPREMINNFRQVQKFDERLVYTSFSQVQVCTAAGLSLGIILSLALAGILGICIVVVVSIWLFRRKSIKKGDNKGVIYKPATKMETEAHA

| Compound | Ki (hCA I; [1]) | Ki (hCA II; [1]) | Ki (hCA IX; [1]) | Ki (hCA XII; [1]) | further results |
| --- | --- | --- | --- | --- | --- |
| O=C(O)c1ccccc1S(=O)(=O)Nc1ccccc1Cl [Compound 19] | > 1 mM | > 1 mM | > 1 mM | > 1 mM |  |
| CC1=CC(OCc2cn(-c3ccc(Br)cc3)nn2)=NS(=O)(=O)O1 [Compound 58] |  |  |  |  | Ki (hCA I; [2]): > 1 mM; Ki (hCA II; [2]): > 1 mM; Ki (hCA IX; [2]): > 1 mM; Ki (hCA XII; [2]): > 1 mM |
| CC(C)c1ccc(NS(=O)(=O)c2ccccc2C(=O)O)cc1 [Compound 27] | > 1 mM | > 1 mM | > 1 mM | > 1 mM |  |
| COc1ccc(-n2cc(CN3C(=O)c4ccccc4S3(=O)=O)nn2)cc1 [Compound 45] | > 1 mM | > 1 mM | 0.666 mM | > 1 mM |  |
| CC(C)=CCN1C(=O)c2ccccc2S1(=O)=O [Compound 1] | > 1 mM | > 1 mM | 0.00039 mM |  | Ki (hCA I): > 1 mM; Ki (hCA II): > 1 mM; Ki (hCA IX): 0.00039 mM; Ki (hCA XII): 0.00023 mM |
| O=C1c2ccccc2S(=O)(=O)N1Cc1cn(Cc2ccccc2)nn1 [Compound 46] | > 0.1 mM | > 0.1 mM | 0.0209 mM |  | Ki (hCA IX): 0.0209 mM and 0.0074 mM; Ki (hCA XII): 0.0074 mM |
| Cc1ccc(N2C(=O)c3ccccc3S2(=O)=O)cc1 [Compound 37] | > 1 mM | > 1 mM | > 1 mM | > 1 mM |  |
| COC(=O)c1ccccc1S(=O)(=O)Nc1ccc([N+](=O)[O-])cc1 [Compound 12] | > 1 mM | > 1 mM | 0.0628 mM | > 1 mM |  |
| COC(=O)c1ccccc1S(=O)(=O)Nc1ccccc1 [Compound 5] | > 1 mM | > 1 mM | 0.0596 mM | > 1 mM |  |
| COc1ccc(N2C(=O)c3ccccc3S2(=O)=O)cc1 [Compound 40] | > 1 mM | > 1 mM | > 1 mM | > 1 mM |  |
| COC(=O)c1ccccc1S(=O)(=O)Nc1ccccc1Cl [Compound 7] | > 1 mM | > 1 mM | 0.428 mM | > 1 mM |  |
| O=C1c2ccccc2S(=O)(=O)N1Cc1cccc(Cl)c1 [Compound 3] | > 1 mM | > 1 mM | 0.0001 mM |  | inhibitory activity against hCA I, in words (hCA I): ineffective; inhibitory activity against hCA II, in words (hCA II): ineffective; Ki (hCA IX): 0.0003 mM; Ki (hCA XII): 0.0013 mM |
| CC(C)=CCN1C(=O)C=C(C)OS1(=O)=O [Compound 50] |  |  |  |  | Ki (hCA I; [2]): > 1 mM; Ki (hCA II; [2]): > 1 mM; Ki (hCA IX; [2]): 0.00033 mM; Ki (hCA XII; [2]): 0.00024 mM |
| O=C1c2ccccc2S(=O)(=O)N1c1ccc(F)cc1 [Compound 30] | > 1 mM | > 1 mM | > 1 mM | > 1 mM |  |
| COC(=O)c1ccccc1S(=O)(=O)Nc1cccc([N+](=O)[O-])c1 [Compound 11] | > 1 mM | > 1 mM | > 1 mM | > 1 mM |  |
| O=C1c2ccccc2S(=O)(=O)N1Cc1ccccc1Cl [Compound 2] | > 1 mM | > 1 mM | 0.0003 mM |  | inhibitory activity against hCA I, in words (hCA I): ineffective; inhibitory activity against hCA II, in words (hCA II): ineffective; Ki (hCA XII): 0.00022 mM |
| COC(=O)c1ccccc1S(=O)(=O)Nc1ccc(F)cc1 [Compound 6] | > 1 mM | > 1 mM | 0.262 mM | > 1 mM |  |
| CC1=CC(=O)N(Cc2cn(-c3ccccc3)nn2)S(=O)(=O)O1 [Compound 53] |  |  |  |  | Ki (hCA I; [2]): > 1 mM; Ki (hCA II; [2]): > 1 mM; Ki (hCA IX; [2]): > 1 mM; Ki (hCA XII; [2]): > 1 mM |
| O=C(O)c1ccccc1S(=O)(=O)Nc1cccc([N+](=O)[O-])c1 [Compound 23] | > 1 mM | > 1 mM | > 1 mM | > 1 mM |  |

| Compound | Ki (hCA I; [1]) | Ki (hCA II; [1]) | Ki (hCA IX; [1]) | Ki (hCA XII; [1]) | further results |
| --- | --- | --- | --- | --- | --- |
| O=C1c2ccccc2S(=O)(=O)N1c1ccc([N+](=O)[O-])cc1 [Compound 36] | > 1 mM | > 1 mM | 0.444 mM | > 1 mM | Ki (hCA IX): 0.443 mM |
| Cc1ccc(NS(=O)(=O)c2ccccc2C(=O)O)cc1 [Compound 25] | > 1 mM | > 1 mM | > 1 mM | > 1 mM |  |
| Cc1cccc(C)c1N1C(=O)c2ccccc2S1(=O)=O [Compound 38] | > 1 mM | > 1 mM | > 1 mM | > 1 mM |  |
| O=C(O)c1ccccc1S(=O)(=O)Nc1ccc(C(F)(F)F)cc1 [Compound 22] | > 1 mM | > 1 mM | 0.0848 mM | > 1 mM |  |
| Cc1cccc(C)c1NS(=O)(=O)c1ccccc1C(=O)O [Compound 26] | > 1 mM | > 1 mM | > 1 mM | > 1 mM |  |
| CC1=CC(=O)N(Cc2ccc(Cl)c(Cl)c2)S(=O)(=O)O1 [Compound 52] |  |  |  |  | Ki (hCA I; [2]): > 1 mM; Ki (hCA II; [2]): > 1 mM; Ki (hCA IX; [2]): 0.00047 mM; Ki (hCA XII; [2]): 0.002 mM |
| O=C1c2ccccc2S(=O)(=O)N1Cc1cn(-c2ccc(Br)cc2)nn1 [Compound 43] | > 1 mM | 0.0764 mM | 0.538 mM | > 1 mM |  |
| COC(=O)c1ccccc1S(=O)(=O)Nc1ccc(OC)cc1 [Compound 16] | > 1 mM | > 1 mM | 0.0933 mM | > 1 mM |  |
| Cc1ccc(-n2cc(CNS(=O)(=O)c3ccccc3C(=O)O)nn2)cc1 [Compound 48] | > 1 mM | > 1 mM | > 1 mM | > 1 mM | inhibitory activity against hCA I, in words (hCA I): ineffective; inhibitory activity against hCA II, in words (hCA II): ineffective; inhibitory activity against hCA IX, in words (hCA IX): ineffective; inhibitory activity against hCA XII, in words (hCA XII): ineffective |
| O=C1c2ccccc2S(=O)(=O)N1c1cccc([N+](=O)[O-])c1 [Compound 35] | > 1 mM | > 1 mM | > 1 mM | > 1 mM |  |
| O=C1c2ccccc2S(=O)(=O)N1c1ccc(C(F)(F)F)cc1 [Compound 34] | > 1 mM | > 1 mM | > 1 mM | > 1 mM |  |
| CC1=CC(=O)N(Cc2cn(-c3ccc(Cl)cc3)nn2)S(=O)(=O)O1 [Compound 54] |  |  |  |  | Ki (hCA I; [2]): > 1 mM; Ki (hCA II; [2]): > 1 mM; Ki (hCA IX; [2]): > 1 mM; Ki (hCA XII; [2]): > 1 mM |
| COC(=O)c1ccccc1S(=O)(=O)Nc1ccc(C(F)(F)F)cc1 [Compound 10] | > 1 mM | > 1 mM | 0.563 mM | > 1 mM |  |
| CC1=CC(=O)N(Cc2ccccc2)S(=O)(=O)O1 [Compound 51] |  |  |  |  | Ki (hCA I; [2]): > 1 mM; Ki (hCA II; [2]): > 1 mM; Ki (hCA IX; [2]): 0.0027 mM; Ki (hCA XII; [2]): 0.00027 mM |
| COC(=O)c1ccccc1S(=O)(=O)Nc1c(C)cccc1C [Compound 14] | > 1 mM | > 1 mM | 0.0397 mM | > 1 mM |  |
| O=C1c2ccccc2S(=O)(=O)N1Cc1cn(-c2ccccc2)nn1 [Compound 41] | > 1 mM | > 1 mM | > 1 mM | > 1 mM | Ki (hCA I): > 1 mM; Ki (hCA II): > 1 mM; Ki (hCA IX): > 1 mM; Ki (hCA XII): > 1 mM |
| CC(C)c1ccc(N2C(=O)c3ccccc3S2(=O)=O)cc1 [Compound 39] | > 1 mM | > 1 mM | > 1 mM | > 1 mM |  |
| O=C(O)c1ccccc1S(=O)(=O)NCc1cn(Cc2ccccc2)nn1 [Compound 49] | > 0.1 mM | > 0.1 mM | 0.0019 mM | 0.0045 mM |  |
